This assay relates to TlpALBD point mutants. The assay is described as follows: SPR binding affinity of TlpALBD point mutants relative to WT. On the set-up: species or system Helicobacter pylori SS1. Particulars: Y228A, Y252A, D254A vs WT. An excerpt:
The periplasmic portion of TlpA (TlpALBD), amino acids 28 to 299, from Helicobacter pylori SS1 was cloned into a pBH4 expression vector (pBH4_TlpALBD) to generate an N-terminal 6×His-tagged construct, with a tobacco etch virus (TEV) protease site, under the control of isopropyl-β-D-thiogalactopyranoside (IPTG) ([19]). […] TlpALBD and all point mutants were purified as described previously by Sweeney et al. ([19]).
Purified TlpALBD was immobilized on a CM5 series S sensor chip, and binding affinities were tested using a Biacore S200 instrument (GE Healthcare) as described previously ([39], [57], [59]). Briefly, proteins were captured using an amine-coupling kit (GE Healthcare), in which the carboxylmethyl dextran matrix of the sensor chip was activated by the injection of a mixture of 0.2 M 1-ethyl-3-[(3-dimethylamino)propyl]-carbodiimide (EDC) and 0.05 M N-hydroxysuccinimide (NHS), followed by the neutralization of the remaining unreacted NHS ester groups by the injection of 1 M ethanolamine-HCl (pH 8.0). Purified TlpALBD was diluted in 10 mM sodium acetate buffer (pH 4.5) at a concentration of 100 μg/ml for immobilization to the chip. A total of 8,400 response units (RU) of TlpALBD were captured on flow cell 2. […] The data sets were analyzed using Biacore S200 evaluation software 2.0.2; sensorgrams were double-reference subtracted.
Background: SPR reads the build-up and loss of mass on a sensor chip optically.

Structures can show the parent of a compound that is named as a salt.

As to `N[C@H]1C(O)O[C@H](CO)[C@@H](O)[C@@H]1O` (stereo partly drawn) [Glucosamine, D(+)-glucosamine hydrochloride], the “Effect of proximal pocket residue mutations on binding affinity” value is listed as “No proximal pocket residues affected the binding affinity”.

The values are drawn from paper PMC8406319, “The dCache Chemoreceptor TlpA of Helicobacter pylori Binds Multiple Attractant and Antagonistic Ligands via Distinct Sites” (mBio, 2021).
